Measured values from BigSolDB 2.1.
Each block holds one compound with its values, some of them ahead of it.

SMILES: Clc1ccc(-c2c3nc(c(-c4ccc(Cl)cc4)c4ccc([nH]4)c(-c4ccc(Cl)cc4)c4nc(c(-c5ccc(Cl)cc5)c5ccc2[nH]5)C=C4)C=C3)cc1
- solubility (mole fraction) (in ethanol, 293.2 K): 1.27e-06
- solubility (mole fraction) (in ethanol, 303.2 K): 1.63e-06
- solubility (mole fraction) (in ethanol, 313.2 K): 1.93e-06
- solubility (mole fraction) (in ethanol, 323.2 K): 2.25e-06
- solubility (mole fraction) (in ethanol, 333.2 K): 2.63e-06

SMILES: C[N+](C)(C)CCOP(=O)([O-])OP(=O)([O-])OC[C@H]1O[C@@H](n2ccc(N)nc2=O)[C@H](O)[C@@H]1O.[Na+]
- solubility (mole fraction) (in water, 278.15 K): 0.0211
- solubility (mole fraction) (in water, 281.15 K): 0.0216
- solubility (mole fraction) (in water, 285.15 K): 0.0224
- solubility (mole fraction) (in water, 289.15 K): 0.0234
- solubility (mole fraction) (in water, 293.15 K): 0.0248
- solubility (mole fraction) (in water, 298.15 K): 0.0265

SMILES: O=[N+]([O-])c1ccc(N/N=C/c2cccs2)c([N+](=O)[O-])c1
- solubility (mole fraction) (in water, 298.15 K): 7e-09

SMILES: Nc1cc(Cl)nnc1Cl
- solubility (mole fraction) (in ethanol, 303.15 K): 0.0171
- solubility (mole fraction) (in ethanol, 305.65 K): 0.0179
- solubility (mole fraction) (in ethanol, 308.15 K): 0.0185
- solubility (mole fraction) (in ethanol, 310.65 K): 0.0192
- solubility (mole fraction) (in ethanol, 313.15 K): 0.0202
- solubility (mole fraction) (in ethanol, 315.65 K): 0.0212
- solubility (mole fraction) (in ethanol, 318.15 K): 0.022
- solubility (mole fraction) (in ethanol, 320.65 K): 0.023
- solubility (mole fraction) (in ethanol, 323.15 K): 0.024

SMILES: N[C@@H](C(=O)O)c1ccc(O)cc1
- solubility (mole fraction) (in water, 293.25 K): 0.00196
- solubility (mole fraction) (in water, 298.13 K): 0.0021
- solubility (mole fraction) (in water, 303.15 K): 0.00224
- solubility (mole fraction) (in water, 308.18 K): 0.00241
- solubility (mole fraction) (in water, 313.15 K): 0.00255
- solubility (mole fraction) (in water, 318.17 K): 0.00272

SMILES: Cc1c(O)c(=O)ccn1C
- solubility (mole fraction) (in NMP, 298.2 K): 0.002
- solubility (mole fraction) (in PEG-400, 298.2 K): 0.00864
- solubility (mole fraction) (in ethanol, 298.2 K): 0.0014
- solubility (mole fraction) (in ethylene glycol, 298.2 K): 0.00737
- solubility (mole fraction) (in propylene glycol, 298.2 K): 0.00563

SMILES: O=c1[nH]cc(I)c(=O)[nH]1
- solubility (mole fraction) (in water, 298.15 K): 0.000373

SMILES: COc1cc(/C=C/C(=O)O)cc(OC)c1O
- solubility (mole fraction) (in DMSO, 298.15 K): 0.147
- solubility (mole fraction) (in DMSO, 303.15 K): 0.149
- solubility (mole fraction) (in DMSO, 308.15 K): 0.152
- solubility (mole fraction) (in DMSO, 313.15 K): 0.155
- solubility (mole fraction) (in DMSO, 318.15 K): 0.158
- solubility (mole fraction) (in ethylene glycol, 298.15 K): 0.00586
- solubility (mole fraction) (in ethylene glycol, 303.15 K): 0.0066
- solubility (mole fraction) (in ethylene glycol, 308.15 K): 0.0075
- solubility (mole fraction) (in ethylene glycol, 313.15 K): 0.00848
- solubility (mole fraction) (in ethylene glycol, 318.15 K): 0.0094

SMILES: O=c1cc[nH]c(=O)[nH]1
- solubility (mole fraction) (in water, 298.15 K): 0.000743

SMILES: Cc1ncc(CO)c(CO)c1O.Cl
- solubility (mole fraction) (in water, 278.15 K): 0.0102
- solubility (mole fraction) (in water, 283.15 K): 0.012
- solubility (mole fraction) (in water, 288.15 K): 0.014
- solubility (mole fraction) (in water, 293.15 K): 0.0165
- solubility (mole fraction) (in water, 298.15 K): 0.0187
- solubility (mole fraction) (in water, 303.15 K): 0.0215
- solubility (mole fraction) (in water, 308.15 K): 0.0245
- solubility (mole fraction) (in water, 313.15 K): 0.0288

Now from value to compound:

- solubility (mole fraction) (in water, 298.15 K): 5.19e-07
SMILES: C(=N\Nc1ccccc1)/c1cccs1

- solubility (mole fraction) (in water, 298.15 K): 5.73e-07
SMILES: C(=N\Nc1ccccc1)/c1ccco1

- solubility (mole fraction) (in 2,2,4-trimethylpentane, 298.15 K): 0.00589
- solubility (mole fraction) (in 4-methyl-2-pentanol, 298.15 K): 0.0128
- solubility (mole fraction) (in cyclohexane, 298.15 K): 0.0107
- solubility (mole fraction) (in dibutyl ether, 298.15 K): 0.0335
- solubility (mole fraction) (in isobutanol, 298.15 K): 0.00969
- solubility (mole fraction) (in isopentanol, 298.15 K): 0.0128
- solubility (mole fraction) (in isopropanol, 298.15 K): 0.00831
- solubility (mole fraction) (in methylcyclohexane, 298.15 K): 0.0113
- solubility (mole fraction) (in n-butanol, 298.15 K): 0.0131
- solubility (mole fraction) (in n-heptane, 298.15 K): 0.00656
- solubility (mole fraction) (in n-hexane, 298.15 K): 0.00575
- solubility (mole fraction) (in n-octane, 298.15 K): 0.00724
- solubility (mole fraction) (in n-octanol, 298.15 K): 0.0169
- solubility (mole fraction) (in n-pentanol, 298.15 K): 0.015
- solubility (mole fraction) (in n-propanol, 298.15 K): 0.0118
- solubility (mole fraction) (in sec-butanol, 298.15 K): 0.011
SMILES: O=C(C(=O)c1ccccc1)c1ccccc1

- solubility (mole fraction) (in dichloromethane, 283.15 K): 0.00567
- solubility (mole fraction) (in dichloromethane, 288.15 K): 0.00642
- solubility (mole fraction) (in dichloromethane, 293.15 K): 0.00731
- solubility (mole fraction) (in dichloromethane, 298.15 K): 0.00843
- solubility (mole fraction) (in dichloromethane, 303.15 K): 0.0103
- solubility (mole fraction) (in dichloromethane, 308.15 K): 0.0133
SMILES: O=P(Oc1ccccc1)(Oc1ccccc1)N1CCN(P(=O)(Oc2ccccc2)Oc2ccccc2)CC1

- solubility (mole fraction) (in acetonitrile, 298.2 K): 0.00106
- solubility (mole fraction) (in ethanol, 298.2 K): 0.0143
- solubility (mole fraction) (in methanol, 298.2 K): 0.0119
- solubility (mole fraction) (in propylene glycol, 298.2 K): 0.0195
SMILES: O=C(O)c1ccc(-n2nc(-c3ccccc3O)nc2-c2ccccc2O)cc1
